Laboratory results: patent US20240407363A1 (priority 2021, published 2024)
In brackets after ≈: the same amount, converted by molar mass.

Tested on: X. perforans GEV-485
Experiment: In vitro MIC and MBC determination in nutrient broth / on NA plates
Assay type: cell-based
Settings: three trials
Method: X. perforans strain GEV-485, a copper-resistant strain, was used in this study to evaluate the antibacterial activity of Hx. Working cultures of GEV-485 were retrieved from −80° C. storage vials containing bacterial suspensions in 30% glycerol (v/v). Bacterial cells were taken from the storage, streaked on nutrient agar (NA; Difco™ Sparks, MD) plates and incubated for 48 h at 28° C. and single colonies were picked and streaked on NA plates to ensure bacterial purity for further cultures. NA amended with copper (II) sulfate pentahydrate (CuSO4·5H2O) (Fisher Scientific-Hampton, NH) at 20 ppm, was used as copper tolerance selective agent. To prepare the bacterial inoculum, a single bacterial colony was streaked on NA and incubated for 24 h at 28° C. From those plates, loops of bacterial cells were collected and resuspended in SDW amended with 0.01 M MgSO4. The bacterial concentration was adjusted to ˜5.0×10^8 colony-forming units (CFU)/mL based on an optical density (OD) of 0.3 at 600 nm. The in vitro studies were conducted to determine the minimum inhibitory concentration (MIC), minimum bactericidal concentration (MBC), and the antibacterial activity at different time points.
To determine MIC of Hx against X. perforans GEV-485, individual 96-well plates containing 100 μL of nutrient broth (NB) with varied copper and Hx concentrations were inoculated with 100 μL of the GEV-485 suspension at the concentration of 1.0×10^8 CFU/mL. The final chemical concentrations on the wells were 16, 32, 64, 128, 256, 512, 1024, 2048, 4096 and 8192 mg/L. Three wells with 100 µL of NB and 100 μL of the bacterial suspension were the controls. Solutions in all wells were thoroughly mixed by pipetting. The plate was, then, covered with a lid and incubated under stationary conditions at 28° C. for 24 h. The value of MIC for Hx and copper was determined as the minimum concentration (mg/L), at which the bacterial growth was inhibited (the solution was clear), among all tested concentrations of each chemical. After MIC was determined, an aliquot of 20 μL of the solution from the wells that gave a clear solution was plated on NA. […] The MBC was determined as the minimum concentration, at which >99.9% of the initial bacterial populations were killed and no visible growth of the bacterium was observed on the NA plates among all tested concentrations of antimicrobial agents. The experiment was repeated two more times, with three replications for each treatment.

CCCCCC(=O)O [Hexanoic acid, hexanoic acid]
MIC (28° C. for 24 h, copper-resistant strain, read-out: MIC): 512 µg/mL (≈ 4.41 mM) | MBC (>99.9% of initial bacterial populations killed, no visible growth on NA, read-out: MBC): 1020 µg/mL (≈ 8.82 mM)
